The values that follow are results of earlier work, collected in US7713351B2, “Method for crystallization of proteins using polysaccharides” (Macrocrystal Oy, priority 2004, dated 2010).

For the data set the following is noted: room temperature; CRC Handbook of Chemistry and Physics.

As for `OCC(O)CO` [glycerol], the Viscosity is given as 934 mPa s.
